Source: patent US12060330B2, “Therapeutic indazoles” (priority 2017, dated 2024)
Entries after “also recorded” stand apart in the source; their conditions may differ.

system: DG167-resistant M. tuberculosis mutants; format: cell-based

| SMILES | susceptibility of DG167-resistant mutants |
| --- | --- |
| CC(C)=CCC/C(C)=C/CNCCNC1C2CC3CC(C2)CC1C3 (stereo not shown) [SQ109] | remained susceptible |
| CCc1cc(C(N)=S)ccn1 [ETH, ethionamide] | remained susceptible |
| O=[N+]([O-])c1cn2c(n1)OC[C@@H](OCc1ccc(OC(F)(F)F)cc1)C2 [PA824] | remained susceptible |
| NNC(=O)c1ccncc1 [INH, isoniazid, reference compound] | remained susceptible |
| COc1nc2ccc(Br)cc2cc1[C@@H](c1ccccc1)[C@@](O)(CCN(C)C)c1cccc2ccccc12 [BDQ, bedaquiline] | remained susceptible |
| CC[C@@H](CO)NCCN[C@@H](CC)CO [EMB, ethambutol] | remained susceptible |

system: mycolic acid biosynthesis; format: cell-based, M. tuberculosis

| SMILES | inhibition of mycolic acid biosynthesis |
| --- | --- |
| CCCCS(=O)(=O)Nc1ccc2cnn(C)c2c1 [DG167, N-(1-methyl-1H-indazol-6-yl)butane-1-sulfonamide] | dose-dependent inhibition; also recorded: resistant to DG167-mediated inhibition of mycolic acid biosynthesis |
